# Patent publication US20220264878A1, “HERBICIDAL COMPOSITION CONTAINING R-TYPE PYRIDYLOXY CARBOXYLIC ACID DERIVATIVE AND USE THEREOF” (Qingdao Kingagroot Chemical Compound Co., Ltd., priority 2019, published 2022)
# Columns and labels:
# Format in all cases: in vivo
# [1] = tested on: Conyza Canadensis; test: Post-emergence foliage spray on Conyza Canadensis with a height of 10 cm, fresh weight inhibition (Tables 207-216; 24 days); settings: 24 days after treatment
# Method: (§1) The above weeds were cultivated by a pot culture method. […] Full and uniform weed seeds were selected, soaked in warm water at 25° C. for 6 hours, and germinated in a 28° C. biochemical incubator (darkness). The weed seeds that had just germinatedwere evenly placed on the surface of the soil and then covered with 0.5-1 cm soil according to the sizes of seeds.
# (§2) The technical materials were all dissolved in acetone, and diluted with an aqueous solution containing 0.1% emulsifier Tween-80. The dilution is performed as required.
# (§3) A ratio of the active ingredient A to the active ingredient B and amounts thereof in each group depends on the characteristics and toxicity of the two agents, as well as the main application purpose of a corresponding formulation. Based on the pre-tests in this study, the dosage of the active ingredient A and B applied alone and in combination were shown in the tables. Water containing the solvent and emulsifier same with the above groups but free of the agents was used as a blank control.
# In the stage of weeds with 6˜8 leaves, the weeds were thinned out to maintain 3 weeds per pot and 30 weeds for each treatment, then continued to be cultured to Conyza Canadensis with a height of 10 cm, and treated.
# (§4) The well-cultured weeds were evenly placed on a platform with an area of 0.5 m^2, and a solution of agents was sprayed on the stems and leaves thereof by the 3WP-2000-type walking spray tower at a dosage of 450 kg/ha and at a spray pressure of 0.3 MPa. After all the solution was sprayed, the valve was closed. After 30 seconds, the door of the spray tower was opened, and the nutritional bowl was taken out. Then the valve was opened, and the spray tube was cleaned by spraying 50 ml of water.
# (§5) A pot-culture method was employed. For the cultivation of weeds, please refer to the Section 1.1), and “Pesticide guidelines for laboratory bioactivity tests—herbicides”. As to a method for applying agents, please refer to the section 2.3.2), that is, a foliage treatment was employed. After the treatment, the weeds were routinely cultured in a greenhouse.
# (§6) A method for investigating absolute number was employed, wherein whole seedlings of survival weeds were cut off with a blade along the soil surface, and the fresh weight of the weeds was weighed with an analytical balance. For dead weeds, the fresh weight thereof was zero.
# Wherein, in the formula, X represented the fresh weight inhibition rate of the active ingredient A in a dosage of P, and Y represented the fresh weight inhibition rate of the active ingredient B in a dosage of Q.
# [2] = tested on: Alopecurus japonicus; test: Post-emergence foliage spray, pot culture, fresh weight inhibition (Tables 1-48, 51-98, 101-148; 24 days)
# Source text: (§7) Table 1-48, 51-98, 101-148: Echinochloa crusgalli var. zelayensis, Eclipta prostrate, Galium aparine L., Alopecurus aequalis, Alopecurus japonicus, Lindernia procumbens, Veronica persica^1, Malachium aquaticum, Beckmannia syzigachne, Stellaria media were collected in Huai'an of Jiangsu Province; Commelina communis, Sonchus arvensis, Setaria glauca, Chloris virgata, Setaria faberi, Sonchus oleraceus L., Echinochloa oryzoides, Cirsium setosum, Xanthium strumarium were collected in Qiqiha'er of Heilongjiang Province; Sinapis arvensis, Veronica persica^2 were collected in Zhumadian of Henan Province; Ludwigia prostrate, Ammannia arenaria were collected in Zhuji of Zhejiang Province; Amaranthus retrojlexus, Descurainia sophia, Digitaria sanguinalis, Setaria viridis, Conyza Canadensis, Capsella bursa-pastoris, Eleusine indica, Ipomoea purpurea, Abutilon theophrasti, Chenopodium album, Acalypha australis, Solanum nigrum were collected in Qingdao of Shandong Province; Echinochloa caudate were collected in Pingluo of Ningxia Province.
# as §1
# (§8) The culture was carried out in a controllable sunlight greenhouse at 20 to 30° C., in natural light, and relative humidity of 57% to 72%.
# as §2, §3
# (§9) Table 1-48, 51-98, 101-148, 151-206: […] per treatment, that is, a total of 60 weeds were treated in one treatment.
# (§10) Table 1-48, 51-98, 101-148: The agents were used for only once in the experiment. In the stage of weeds with 3˜4 leaves, the weeds were thinned out to maintain 15 weeds per pot and 45 weeds for each treatment, then continued to be cultured to 5˜6 leaves stage of grassy weeds, 6˜7 leaves stage of broadleaf weeds, and treated.
# as §4, §5, §6
# (§11) Table 1-48, 51-98, 101-148, 207-216: The investigation was performed after 24 days of the treatment for only once.
# [3] = tested on: Beckmannia syzigachne; test: as above
# Source text: as §7, §1, §8, §2, §3, §9, §10, §4, §5, §6, §11
smiles,measurement,setting,value
Cc1cc(Cl)ccc1OCC(=O)O [MCPA],Control effect (%) of B applied alone in corresponding dose,[1]; B alone 75 g a.i./ha,18.8%
Nc1cc(Cl)nc(C(=O)O)c1Cl [aminopyralid],Control effect (%) of B applied alone in corresponding dose,[1]; B alone 15 g a.i./ha,19.0%
same,Control effect (%) of B applied alone in corresponding dose,[1]; B alone 30 g a.i./ha,40.7%
Cc1ccc(NC(=O)N(C)C)cc1Cl [chlorotoluron],Control effect (%) of B applied alone in corresponding dose,[2]; chlorotoluron 75 g a.i./ha,2.9%
same,Control effect (%) of B applied alone in corresponding dose,[2]; chlorotoluron 150 g a.i./ha,13.1%
same,Control effect (%) of B applied alone in corresponding dose,[2]; chlorotoluron 300 g a.i./ha,39.8%
same,Control effect (%) of B applied alone in corresponding dose,[2]; chlorotoluron 600 g a.i./ha,71.9%
same,Control effect (%) of B applied alone in corresponding dose,[3]; B 75 g a.i./ha,5.5%
same,Control effect (%) of B applied alone in corresponding dose,[3]; B 150 g a.i./ha,16.8%
same,Control effect (%) of B applied alone in corresponding dose,[3]; B 300 g a.i./ha,41.1%
same,Control effect (%) of B applied alone in corresponding dose,[3]; B 600 g a.i./ha,72.1%
C#CCOC(=O)[C@@H](C)Oc1ccc(Oc2ncc(Cl)cc2F)cc1 [clodinafop-propargyl],Control effect (%) of B applied alone in corresponding dose,[2]; clodinafop-propargyl 3.75 g a.i./ha,3.0%
same,Control effect (%) of B applied alone in corresponding dose,[2]; clodinafop-propargyl 7.5 g a.i./ha,10.6%
same,Control effect (%) of B applied alone in corresponding dose,[2]; clodinafop-propargyl 15 g a.i./ha,57.8%
same,Control effect (%) of B applied alone in corresponding dose,[2]; clodinafop-propargyl 30 g a.i./ha,79.9%
same,Control effect (%) of B applied alone in corresponding dose,[3]; B 3.75 g a.i./ha,10.3%
same,Control effect (%) of B applied alone in corresponding dose,[3]; B 7.5 g a.i./ha,20.1%
same,Control effect (%) of B applied alone in corresponding dose,[3]; B 15 g a.i./ha,59.6%
same,Control effect (%) of B applied alone in corresponding dose,[3]; B 30 g a.i./ha,81.2%
O=C(O)c1nc(Cl)ccc1Cl [clopyralid],Control effect (%) of B applied alone in corresponding dose,[1]; B alone 15 g a.i./ha,6.1%
same,Control effect (%) of B applied alone in corresponding dose,[1]; B alone 30 g a.i./ha,29.8%
same,Control effect (%) of B applied alone in corresponding dose,[1]; B alone 60 g a.i./ha,53.5%
same,Control effect (%) of B applied alone in corresponding dose,[1]; B alone 120 g a.i./ha,82.8%
Cn1[nH]c(C2CC2)c(C(=O)c2ccc(C(F)(F)F)c(N3CCCCC3=O)c2Cl)c1=O [cypyrafluone],Control effect (%) of B applied alone in corresponding dose,[2]; cypyrafluone 18.75 g a.i./ha,4.0%
same,Control effect (%) of B applied alone in corresponding dose,[2]; cypyrafluone 37.5 g a.i./ha,24.9%
same,Control effect (%) of B applied alone in corresponding dose,[2]; cypyrafluone 75 g a.i./ha,54.8%
same,Control effect (%) of B applied alone in corresponding dose,[2]; cypyrafluone 150 g a.i./ha,81.3%
same,Control effect (%) of B applied alone in corresponding dose,[3]; B 18.75 g a.i./ha,9.0%
same,Control effect (%) of B applied alone in corresponding dose,[3]; B 37.5 g a.i./ha,14.2%
same,Control effect (%) of B applied alone in corresponding dose,[3]; B 75 g a.i./ha,56.3%
same,Control effect (%) of B applied alone in corresponding dose,[3]; B 150 g a.i./ha,81.8%
COc1c(Cl)ccc(Cl)c1C(=O)O [dicamba],Control effect (%) of B applied alone in corresponding dose,[1]; B alone 150 g a.i./ha,58.7%
COc1c(Cl)ccc(-c2nc(C(=O)OCc3ccccc3)c(Cl)c(N)c2F)c1F [florpyrauxifen benzyl],Control effect (%) of B applied alone in corresponding dose,[1]; B alone 1.875 g a.i./ha,3.5%
same,Control effect (%) of B applied alone in corresponding dose,[1]; B alone 7.5 g a.i./ha,47.4%
Nc1c(Cl)c(F)nc(OCC(=O)O)c1Cl [fluroxypyr],Control effect (%) of B applied alone in corresponding dose,[1]; B alone 37.5 g a.i./ha,5.8%
COC(=O)c1nc(-c2ccc(Cl)c(OC)c2F)cc(N)c1Cl [halauxifen-methyl],Control effect (%) of B applied alone in corresponding dose,[1]; B alone 3.75 g a.i./ha,20.5%
same,Control effect (%) of B applied alone in corresponding dose,[1]; B alone 15 g a.i./ha,81.5%
CC(C)c1ccc(NC(=O)N(C)C)cc1 [isoproturon],Control effect (%) of B applied alone in corresponding dose,[2]; isoproturon 75 g a.i./ha,2.5%
same,Control effect (%) of B applied alone in corresponding dose,[2]; isoproturon 150 g a.i./ha,11.4%
same,Control effect (%) of B applied alone in corresponding dose,[2]; isoproturon 300 g a.i./ha,56.5%
same,Control effect (%) of B applied alone in corresponding dose,[2]; isoproturon 600 g a.i./ha,75.9%
same,Control effect (%) of B applied alone in corresponding dose,[3]; B 75 g a.i./ha,7.0%
same,Control effect (%) of B applied alone in corresponding dose,[3]; B 150 g a.i./ha,15.9%
same,Control effect (%) of B applied alone in corresponding dose,[3]; B 300 g a.i./ha,57.6%
same,Control effect (%) of B applied alone in corresponding dose,[3]; B 600 g a.i./ha,76.6%
Nc1c(Cl)c(Cl)nc(C(=O)O)c1Cl [picloram],Control effect (%) of B applied alone in corresponding dose,[1]; B alone 7.5 g a.i./ha,5.0%
same,Control effect (%) of B applied alone in corresponding dose,[1]; B alone 60 g a.i./ha,69.4%
CCc1cc(C)cc(CC)c1-c1c(OC(=O)C(C)(C)C)n2n(c1=O)CCOCC2 [pinoxaden],Control effect (%) of B applied alone in corresponding dose,[2]; pinoxaden 3.75 g a.i./ha,2.5%
same,Control effect (%) of B applied alone in corresponding dose,[2]; pinoxaden 7.5 g a.i./ha,12.1%
same,Control effect (%) of B applied alone in corresponding dose,[2]; pinoxaden 15 g a.i./ha,41.7%
same,Control effect (%) of B applied alone in corresponding dose,[2]; pinoxaden 30 g a.i./ha,71.8%
same,Control effect (%) of B applied alone in corresponding dose,[3]; B 3.75 g a.i./ha,7.9%
same,Control effect (%) of B applied alone in corresponding dose,[3]; B 7.5 g a.i./ha,18.0%
same,Control effect (%) of B applied alone in corresponding dose,[3]; B 15 g a.i./ha,43.5%
same,Control effect (%) of B applied alone in corresponding dose,[3]; B 30 g a.i./ha,72.6%
O=C(O)c1c(Cl)ccc2cc(Cl)cnc12 [quinclorac],Control effect (%) of B applied alone in corresponding dose,[1]; B alone 30 g a.i./ha,11.7%
same,Control effect (%) of B applied alone in corresponding dose,[1]; B alone 60 g a.i./ha,28.8%
same,Control effect (%) of B applied alone in corresponding dose,[1]; B alone 120 g a.i./ha,53.7%
same,Control effect (%) of B applied alone in corresponding dose,[1]; B alone 240 g a.i./ha,76.2%
O=C(O)COc1nc(Cl)c(Cl)cc1Cl [triclopyr],Control effect (%) of B applied alone in corresponding dose,[1]; B alone 300 g a.i./ha,78.4%
